Source: publication PMC3849131, “^18 F-click labeling and preclinical evaluation of a new ^18 F-folate for PET imaging” (EJNMMI Research, 2013)

Key:
folate receptor = biological target: T1, folate receptor (Homo sapiens, UniProt P15328); assay: Displacement assay with [^3H]folic acid on FR-positive human KB cells; type: binding; conditions: Cheng-Prusoff equation, assuming Kd of [^3H]folic acid 1 nM
T1 construct: using [^3H]folic acid and human KB cells in cell suspension; endogenous in cells; host or cells: human KB cells
Experimental: FR-positive human KB cells were kept under folate-deficient conditions to adjust the folate concentration levels to that of the human serum.
Figure 1 Displacement assay. […] Experiments were conducted in triplicate (n = 3).

KB tumor-bearing mice = assay: In vivo μPET imaging of KB tumor-bearing mice; conditions: scan 60 to 90 min p.i., approximately 13 MBq
Experimental: All animal experiments were approved by the local veterinary department and complied with Swiss and local laws on animal protection. Female CD-1 nude mice (Charles River, Sulzfeld, Germany) were fed with a folate-deficient rodent diet (Harlan Laboratories, Indianapolis, IN, USA). After an acclimatization period of 5 to 7 days, human KB tumor cells (5 × 10^6 cells in 0.1 mL sterile phosphate-buffered saline (PBS)) were inoculated subcutaneously on both shoulders of each mouse. Twelve days later, the animals were intravenously injected with [^18 F]12 (approximately 5 MBq, 100 μL). […] Animals were euthanized at the indicated time points, and selected organs and tissues were collected, weighed, and measured in a γ-counter. The incorporated radioactivity was expressed as percentage injected dose per gram (%ID/g) of tissue. PET/computed tomography (CT) experiments were performed with a dedicated small-animal PET/CT scanner (eXplore Vista PET/CT, Sedecal, Algete, Spain/GE Healthcare). Animals were intravenously injected with [^18 F]12 (approximately 13 MBq, 100 μL). For scanning, mice were anesthetized with isoflurane in an air/oxygen mixture. The PET scans were acquired from 60 to 90 min post-injection (p.i.) followed by a CT. After acquisition, PET data were reconstructed in user-defined time frames, and the fused datasets of PET and CT were analyzed with PMOD software (version 3.4). […]

[1] = In vitro metabolite/stability study in fetal calf serum; type: in vitro ADME; conditions: FCS, 37°C, 15, 30, 60 and 90 min
Experimental: A solution of [^18 F]12 (50 μL, approximately 5 MBq) was incubated with 500 μL of fetal calf serum (FCS) at 37°C and the mixture shaken at 900 rpm. The time points were set between 0 and 90 min using 500 μL of FCS and 50 μL of the radiotracer for each time point. Plasma proteins were precipitated by addition of cold acetonitrile (300 μL), followed by centrifugation (10,000 rpm, 10 min). An aliquot of each time point (15, 30, 60, and 90 min, 100 μL) was injected into the analytical radio-HPLC system for analytics.
The stability of the new radiotracer, [^18 F]12, was evaluated in the presence of FCS. For this purpose, [^18 F]12 was added to FCS and incubated at 37°C. At certain time points (15, 30, 60, and 90 min), aliquots were extracted and proteins removed by precipitation. The integrity of the radiotracer was determined by analytical radio-HPLC.

[2] = Relative lipophilicity (capacity factor k’) by reversed-phase HPLC; type: physicochemical; conditions: methanol-phosphoric acid buffer eluent, pH 2
Experimental: The relative lipophilicity of 6 was determined as capacity factor k’ (k’ = (tretention - tsolvent) / tsolvent) by reversed-phase HPLC using a methanol-phosphoric acid buffer eluent system at pH 2. […] This method has already been described elsewhere. The capacity factor k’ (k’ = (tretention - tsolvent) / tsolvent) was determined using reversed-phase HPLC and enables different (radio)folates to be compared based on their polarity. The values determined can be used to give hint to the in vivo behavior in terms of the degree of hepatobiliary excretion by comparison with literature examples.

T1 sequence (P15328 25-257): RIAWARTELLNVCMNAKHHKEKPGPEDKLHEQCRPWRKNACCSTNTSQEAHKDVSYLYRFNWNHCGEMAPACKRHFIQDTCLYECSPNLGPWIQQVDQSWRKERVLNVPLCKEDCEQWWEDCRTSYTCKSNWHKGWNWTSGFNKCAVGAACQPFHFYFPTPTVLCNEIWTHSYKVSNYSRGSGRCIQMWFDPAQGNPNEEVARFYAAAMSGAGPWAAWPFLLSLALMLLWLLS

Substance: 16-(4-(((2-amino-4-oxo-3,4-dihydropteridin-6-yl)methyl)amino)benzamido)-1-(4-(2-(2-(2-[^18 F]fluoroethoxy)ethoxy)ethoxy)-1H-1,2,3-triazol-1-yl)-13-oxo-3,6,9-trioxa-12-azaheptadecan-17-oic acid [[^18 F]12]
- Ki (folate receptor): 1.6 nM
- tumor visualization in μPET (KB tumor-bearing mice): facilitated visualization of FR-positive tumors on the maximum intensity projection
- stability in fetal calf serum (radio-HPLC) [1]: No degradation or defluorination
- capacity factor k’ [2]: 1.12
